{"source": "patent US11446269B2", "about": "“Methods of reducing or preventing oxidation of small dense LDL or membrane polyunsaturated fatty acids” (Amarin Pharmaceuticals Ireland Limited, priority 2014, dated 2022)", "tested_on": "HUVECs", "assay": "NO and ONOO^− release from HUVECs treated concomitantly with agent-treated oxLDL (Example 11, objective 2)", "assay_type": "cell-based, human", "settings": "oxLDL 11 mg/dL treated 30 min with agents 10 μM, 60 min exposure, calcium ionophore; in nM", "description": "Human umbilical vein endothelial cells (HUVECs) were obtained from healthy, female donors and isolated into primary, proliferating cell cultures (Clonetics, San Diego, Calif.). The cells were incubated in 95% air/5% CO2 at 37° C. and passaged by an enzymatic (trypsin) procedure. The confluent cells (4 to 5×10^5 cells/35 mm dish) were plated with minimum essential medium containing 3 mM L-arginine and 0.1 mM BH4 [(6R)-5,6,7,8-tetrahydrobiopterin]. Before experimental use, the cells (from second or third passage) were rinsed twice with Tyrode-HEPES buffer with 1.8 mM CaCl2.\nConcurrent measurements of NO and ONOO^− were performed with tandem electrochemical nanosensors combined into one working unit with a total diameter of 200-400 nm. Their design is based on previously developed and chemically modified carbon-fiber technology. […]\nThe amperometric method (with a response time of 0.1 ms) provides a quantitative signal (current) that is directly proportional to changes (from basal levels) in NO or ONOO^− concentration. […] Basal NO or ONOO^− levels were measured by differential pulse voltammetry in separate experiments.\nAll measurements of NO and ONOO^− were performed on intact endothelial cells. […] Cells will then be treated with calcium ionophore (to maximally stimulate the release of nitrous molecules) and monitored continuously for changes in amperometric current. […]"}
{"smiles": "CC/C=C\\C/C=C\\C/C=C\\C/C=C\\C/C=C\\C/C=C\\CCC(=O)O", "note": "[DHA, docosahexaenoic acid]", "values": [{"measurement": "ONOO^− release", "result": "240 ± 27^"}]}
